{"source": "paper PMC11063903", "about": "“Engineering a human P2X2 receptor with altered ligand selectivity in yeast” (The Journal of Biological Chemistry, 2024)", "assay_type_in_all_cases": "cell-based", "key": {"[1]": {"biological_target": "T1, P2X2 G353 serine substitution (G353S) (Homo sapiens, UniProt Q9UBL9, G353S)", "T1 construct": "expressed in transfected cells; host or cells: S. cerevisiae BY4741 background", "T1 sequence (Q9UBL9 whole entry G353S)": "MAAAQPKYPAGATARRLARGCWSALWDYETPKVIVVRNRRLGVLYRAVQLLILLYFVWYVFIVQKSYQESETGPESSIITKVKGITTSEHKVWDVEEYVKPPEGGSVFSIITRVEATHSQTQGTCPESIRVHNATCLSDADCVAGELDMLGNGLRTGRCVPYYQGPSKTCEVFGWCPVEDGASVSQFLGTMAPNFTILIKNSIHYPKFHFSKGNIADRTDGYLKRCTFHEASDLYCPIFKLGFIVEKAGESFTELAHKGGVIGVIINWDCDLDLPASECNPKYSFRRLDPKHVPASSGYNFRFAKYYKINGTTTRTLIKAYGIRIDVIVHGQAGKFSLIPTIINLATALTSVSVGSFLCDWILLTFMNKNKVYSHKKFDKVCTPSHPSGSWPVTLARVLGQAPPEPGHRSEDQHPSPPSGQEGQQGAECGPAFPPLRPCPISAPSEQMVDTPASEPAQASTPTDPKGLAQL", "test": "Site-saturation screen, fast kinetic assay in yeast, G353 serine", "conditions": "500 μM ATP, ΔF/ΔT normalized to WT", "description": "Figure 2 P2X2 SNP testing.A, homology model of P2X2 with the clinically implicated SNPs highlighted. V60 is highlighted in magenta and G353 is highlighted in dark blue. Lines indicate the positions of the mutations on each of the three monomers. B, zoomed view of the transmembrane region from the purple box in (A). V60 is magenta and G353 is dark blue. The structure is rotated 60° on the right image. C, screening data from site-saturation of the V60 residue in saturating ATP concentration (500 μM f.c.) using the fast kinetic assay. Signal onset values (ΔF/ΔT) are normalized to values from the WT receptor. […] Each of 2 to 3 replicates is represented as a single point. […]\nGCaMP assays were performed as follows. […] Cells were loaded onto a black, clear bottom microplate and imaged on a FlexStation3 plate reader. […] Fluorescence was measured with an excitation at 485 nm, and emission 525 nm. […] For strains with mScarlet, fluorescence was read with excitation 570 nm/emission 610 nm. Slopes were calculated from the last 6 points of measurement and were normalized to the positive control samples. Any replicate in which the mScarlet value was measured to be over 2 standard deviations less than the mean for that set was discarded from further analysis."}, "P2X2 N300T": {"biological_target": "T2, P2X2 N300T (Homo sapiens, UniProt Q9UBL9, N300T)", "T2 construct": "expressed in transfected cells; host or cells: S. cerevisiae BY4741 background", "T2 sequence (Q9UBL9 whole entry N300T, the tested form may be a part)": "as the sequence (Q9UBL9 whole entry G353S) above, with N300T, S353G counted along it", "test": "Site-saturation screen of ligand-binding domain with ATP, N300T", "conditions": "500 μM ATP, ± sd", "text": "(§1) The yeast P2X2 screening platform poses an opportunity to probe the structure-function of the ligand-binding domain in detail. The conserved P2X “NFR” motif at residues 300 to 302 is directly involved in bonding to the ATP triphosphate moiety ([41]), so we mutagenized residues at or near this motif (298–304), ultimately covering 133 variants (7 sites, 19 residues each). […] We compared our results to phylogenetic data based on a multiple sequence alignment (MSA) from a curated set of 419 related P2X homologs (Figs. 3B, and S5; Table S1).\n(§2) Figure 3 Structure-function analysis of the ligand binding domain.A, heat map summarizing the screening data of ATP with seven site-saturation libraries surrounding the NFR-motif. B, sequence-logo plot of the mutagenized residues and percent identity scores as determined from MSA. C, homology model of P2X2 colored by sequence conservation as calculated from a multiple sequence alignment of 419 related P2X genes. Conservation is scored on a log scale where maroon is more conserved and blue is less conserved. D, ATP in the ligand-binding pocket of P2X2. […]\n(§3) GCaMP assays were performed as follows. […] Cells were loaded onto a black, clear bottom microplate and imaged on a FlexStation3 plate reader. […] Fluorescence was measured with an excitation at 485 nm, and emission 525 nm. […] For strains with mScarlet, fluorescence was read with excitation 570 nm/emission 610 nm. […]"}, "P2X2 N300S": {"biological_target": "T3, P2X2 N300S (Homo sapiens, UniProt Q9UBL9, N300S)", "T3 construct": "expressed in transfected cells; host or cells: S. cerevisiae BY4741 background", "T3 sequence (Q9UBL9 whole entry N300S, the tested form may be a part)": "as the sequence (Q9UBL9 whole entry G353S) above, with N300S, S353G counted along it", "test": "Site-saturation screen of ligand-binding domain with ATP, N300S", "conditions": "500 μM ATP, ± sd", "text": "as §1, §2, §3"}}}
{"smiles": "Nc1ncnc2c1ncn2[C@@H]1O[C@H](COP(=O)(O)OP(=O)(O)OP(=O)(O)O)[C@@H](O)[C@H]1O", "note": "[ATP]", "values": [{"measurement": "signaling, % of WT activity", "setting": "[1]", "result": 95, "unit": "%"}, {"measurement": "signal, % of WT signaling", "setting": "P2X2 N300T", "result": "51 ± 10", "unit": "%"}, {"measurement": "signal, % of WT signaling", "setting": "P2X2 N300S", "result": "151 ± 16", "unit": "%"}]}
